Test results taken from PubChem BioAssay AID256 (DTP/NCI, 2004).
Where “and” joins values, the source holds several entries; their conditions need not be identical. Equal values may be shown once. Inconclusive results and toxic doses are left out. Rule for the calls: active = survival T/C of 150% or more; inactive = T/C below 125% in these data.

Tested on: CD2F1 mice, L1210 leukemia ip, survival T/C
Assay: NCI In Vivo Anticancer Drug Screen. Data for tumor model L1210 Leukemia (intraperitoneal) in CD2F1 (CDF1) mice
Details: higher = longer survival
In short: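 In this screen, transplantable tumors were grown in mice given either the compound or its vehicle. Results were expressed as the treated measurement relative to the control measurement.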

[1] = endpoint: mean survival time, dose: 100.0 mg/kg/injection, schedule: Q04DX003 (ip), vehicle: saline with Tween-80
[2] = endpoint: mean survival time, dose: 200.0 mg/kg/injection, schedule: Q04DX003 (ip), vehicle: saline with Tween-80
[3] = endpoint: mean survival time, dose: 400.0 mg/kg/injection, schedule: Q04DX003 (ip), vehicle: saline with Tween-80
[4] = endpoint: mean survival time, dose: 25.0 mg/kg/injection, schedule: Q01DX009 (ip), vehicle: saline
[5] = endpoint: mean survival time, dose: 100.0 mg/kg/injection, schedule: Q01DX001 (ip), vehicle: Klucel (hydroxypropylcellulose) (HPC)
[6] = endpoint: mean survival time, dose: 200.0 mg/kg/injection, schedule: Q01DX001 (ip), vehicle: Klucel (hydroxypropylcellulose) (HPC)
[7] = endpoint: mean survival time, dose: 400.0 mg/kg/injection, schedule: Q01DX001 (ip), vehicle: Klucel (hydroxypropylcellulose) (HPC)
[8] = endpoint: mean survival time, dose: 100.0 mg/kg/injection, schedule: Q01DX009 (ip), vehicle: saline with Tween-80
[9] = endpoint: mean survival time, dose: 200.0 mg/kg/injection, schedule: Q01DX009 (ip), vehicle: saline with Tween-80
[10] = endpoint: mean survival time, dose: 100.0 mg/kg/injection, schedule: Q01DX001 (ip), vehicle: saline with Tween-80
[11] = endpoint: mean survival time, dose: 400.0 mg/kg/injection, schedule: Q01DX001 (ip), vehicle: saline with Tween-80
[12] = endpoint: mean survival time, dose: 100.0 mg/kg/injection, schedule: Q01DX009 (ip), vehicle: saline
[13] = endpoint: mean survival time, dose: 200.0 mg/kg/injection, schedule: Q01DX009 (ip), vehicle: saline
[14] = endpoint: mean survival time, dose: 400.0 mg/kg/injection, schedule: Q01DX009 (ip), vehicle: saline
[15] = endpoint: mean survival time, dose: 100.0 mg/kg/injection, schedule: Q01DX009 (ip), vehicle: Klucel (hydroxypropylcellulose) (HPC)
[16] = endpoint: mean survival time, dose: 200.0 mg/kg/injection, schedule: Q01DX009 (ip), vehicle: Klucel (hydroxypropylcellulose) (HPC)
[17] = endpoint: mean survival time, dose: 200.0 mg/kg/injection, schedule: Q01DX001 (ip), vehicle: saline with Tween-80

Measured: T/C

Clc1ccc(/C(=C(\Br)c2ccccc2)c2ccccc2)cc1
inactive: [1] 102 % of control and 100 % of control | [2] 100 % of control and 102 % of control | [3] 96 % of control and 94 % of control

C=C1C(=O)OC2C1CCC(C)C1(O)C=CC(=O)C21C (stereo not drawn)
inactive: endpoint: mean survival time, dose: 50.0 mg/kg/injection, schedule: Q01DX001 (ip), vehicle: saline 107 % of control | endpoint: mean survival time, dose: 100.0 mg/kg/injection, schedule: Q01DX001 (ip), vehicle: saline 97 % of control

CCCC[S+](CCCC)CC(=O)c1ccc(-c2ccccc2)cc1
inactive: endpoint: mean survival time, dose: 0.19 mg/kg/injection, schedule: Q01DX009 (ip), vehicle: saline with Tween-80 97 % of control | endpoint: mean survival time, dose: 0.39 mg/kg/injection, schedule: Q01DX009 (ip), vehicle: saline with Tween-80 101 % of control | endpoint: mean survival time, dose: 0.76 mg/kg/injection, schedule: Q01DX009 (ip), vehicle: saline with Tween-80 98 % of control | endpoint: mean survival time, dose: 1.56 mg/kg/injection, schedule: Q01DX009 (ip), vehicle: saline with Tween-80 97 % of control | endpoint: mean survival time, dose: 1.56 mg/kg/injection, schedule: Q01DX009 (ip), vehicle: saline 86 % of control | endpoint: mean survival time, dose: 3.12 mg/kg/injection, schedule: Q01DX009 (ip), vehicle: saline with Tween-80 98 % of control | endpoint: mean survival time, dose: 3.13 mg/kg/injection, schedule: Q01DX009 (ip), vehicle: saline 87 % of control | endpoint: mean survival time, dose: 12.5 mg/kg/injection, schedule: Q01DX009 (ip), vehicle: saline 87 % of control | [4] 87 % of control

OC(CN=C/C=C/c1ccccc1)c1ccccc1 (stereo not drawn)
inactive: [1] 95 % of control | [2] 89 % of control | [3] 92 % of control

O=C1NC(=O)c2c(O)ccc(O)c21
inactive: [5] 114 % of control | [6] 91 % of control | [7] 95 % of control

O=C(C[n+]1ccccc1)CC(O)(C(F)(F)F)C(F)(F)F
inactive: [8] 105 % of control | [9] 103 % of control

COc1cc(NC(=O)O/N=C/c2ccccn2)cc(OC)c1OC
inactive: [10] 95 % of control | [11] 92 % of control

Cc1cc2nc3c(=O)[nH]c(=O)nc-3n(CC(O)C(O)C(O)C(O)CO)c2cc1C (stereo not drawn)
inactive: [4] 101 % of control | endpoint: mean survival time, dose: 25.0 mg/kg/injection, schedule: Q01DX009 (ip), vehicle: suspension in saline 96 % of control | endpoint: mean survival time, dose: 50.0 mg/kg/injection, schedule: Q01DX009 (ip), vehicle: saline 93 % of control | endpoint: mean survival time, dose: 50.0 mg/kg/injection, schedule: Q01DX009 (ip), vehicle: suspension in saline 104 % of control | [12] 95 % of control | endpoint: mean survival time, dose: 100.0 mg/kg/injection, schedule: Q01DX009 (ip), vehicle: suspension in saline 102 % of control | [13] 98 % of control | endpoint: mean survival time, dose: 200.0 mg/kg/injection, schedule: Q01DX009 (ip), vehicle: suspension in saline 98 % of control | [14] 103 % of control | endpoint: mean survival time, dose: 400.0 mg/kg/injection, schedule: Q01DX009 (ip), vehicle: suspension in saline 98 % of control | endpoint: mean survival time, dose: 800.0 mg/kg/injection, schedule: Q01DX009 (ip), vehicle: saline 95 % of control

CC(C)CCCCCc1ccc(OCCOc2ccc(C(=O)Nc3ccc(S(=O)(=O)F)cc3[N+](=O)[O-])cc2)cc1
inactive: [15] 91 % of control | [16] 92 % of control | endpoint: mean survival time, dose: 400.0 mg/kg/injection, schedule: Q01DX009 (ip), vehicle: Klucel (hydroxypropylcellulose) (HPC) 87 % of control

O=C(c1ccc([N+](=O)[O-])cc1)n1ncc2ccccc21
inactive: endpoint: median survival time, dose: 25.0 mg/kg/injection, schedule: Q04DX002 (ip), vehicle: saline with Tween-80 100 % of control | endpoint: median survival time, dose: 50.0 mg/kg/injection, schedule: Q04DX002 (ip), vehicle: saline with Tween-80 100 % of control | endpoint: median survival time, dose: 100.0 mg/kg/injection, schedule: Q04DX002 (ip), vehicle: saline with Tween-80 100 % of control | endpoint: median survival time, dose: 200.0 mg/kg/injection, schedule: Q04DX002 (ip), vehicle: saline with Tween-80 100 % of control

Cc1cc(=NO)cc(C)n1O
inactive: endpoint: median survival time, dose: 25.0 mg/kg/injection, schedule: Q01DX009 (ip), vehicle: distilled water + alcohol 108 % of control | endpoint: median survival time, dose: 50.0 mg/kg/injection, schedule: Q01DX009 (ip), vehicle: distilled water + alcohol 104 % of control | endpoint: median survival time, dose: 100.0 mg/kg/injection, schedule: Q01DX009 (ip), vehicle: distilled water + alcohol 112 % of control | endpoint: median survival time, dose: 200.0 mg/kg/injection, schedule: Q01DX009 (ip), vehicle: distilled water + alcohol 108 % of control | endpoint: median survival time, dose: 400.0 mg/kg/injection, schedule: Q01DX009 (ip), vehicle: distilled water + alcohol 97 % of control

Cc1ccc(NC(=O)Nc2cccc(CNC(=O)COc3ccc(Cl)cc3C(=O)O)c2)cc1S(=O)(=O)F
inactive: endpoint: mean survival time, dose: 25.0 mg/kg/injection, schedule: Q01DX001 (ip), vehicle: saline with Tween-80 102 % of control | endpoint: mean survival time, dose: 50.0 mg/kg/injection, schedule: Q01DX001 (ip), vehicle: saline with Tween-80 96 % of control | [10] 93 % of control | [17] 86 % of control | [11] 88 % of control

COc1cc2c(cc1OC)C1CC(=O)C(CC(C)C)CN1CC2 (stereo not drawn)
inactive: [1] 96 % of control | [2] 88 % of control | [3] 100 % of control

C#CCOCC(O)C[As](=O)(O)c1cccc(Cl)c1 (stereo not drawn)
inactive: endpoint: mean survival time, dose: 6.25 mg/kg/injection, schedule: Q04DX003 (ip), vehicle: saline 104 % of control

O=[N+]([O-])c1cccc2c(S(=O)(=O)O)cccc12
inactive: [1] 102 % of control | [2] 98 % of control

O=C1Nc2ccc(C(=O)O)c(O)c2C1=O
inactive: [10] 96 % of control | [17] 100 % of control | [11] 89 % of control

Nc1ccc(Br)cc1-c1nc(N)c2cc(Br)ccc2n1
inactive: endpoint: mean survival time, dose: 50.0 mg/kg/injection, schedule: Q01DX009 (ip), vehicle: Klucel (hydroxypropylcellulose) (HPC) 104 % of control | [5] 93 % of control | [15] 89 % of control | [6] 103 % of control | [16] 100 % of control | [7] 100 % of control

Nc1ccc(S(=O)(=O)S(=O)(=O)c2ccc(N)cc2)cc1
inactive: [10] 93 % of control | [17] 97 % of control

CN(C)c1ccc(-c2c3cc(O)c(=O)cc-3oc3cc(O)c(O)cc23)cc1
inactive: endpoint: mean survival time, dose: 50.0 mg/kg/injection, schedule: Q01DX009 (ip), vehicle: saline with Tween-80 92 % of control | [8] 95 % of control | [9] 91 % of control

CC12OC3(C)C4C(O)C1C1(C)OC4(C)C3C(O)C21 (stereo not drawn)
inactive: [12] 96 % of control | [13] 102 % of control | [14] 98 % of control

Cn1nc2ccccc2n1
inactive: endpoint: mean survival time, dose: 118.0 mg/kg/injection, schedule: Q04DX003 (ip), vehicle: saline with Tween-80 104 % of control | endpoint: mean survival time, dose: 178.0 mg/kg/injection, schedule: Q04DX003 (ip), vehicle: saline with Tween-80 98 % of control | endpoint: mean survival time, dose: 266.0 mg/kg/injection, schedule: Q04DX003 (ip), vehicle: saline with Tween-80 109 % of control | [3] 96 % of control

O=C1CNC(=O)N1CN1CCOCC1
inactive: endpoint: median survival time, dose: 50.0 mg/kg/injection, schedule: Q01DX009 (ip), vehicle: Klucel (hydroxypropylcellulose) (HPC) 108 % of control | endpoint: median survival time, dose: 100.0 mg/kg/injection, schedule: Q01DX009 (ip), vehicle: Klucel (hydroxypropylcellulose) (HPC) 116 % of control | endpoint: median survival time, dose: 200.0 mg/kg/injection, schedule: Q01DX009 (ip), vehicle: Klucel (hydroxypropylcellulose) (HPC) 116 % of control | endpoint: median survival time, dose: 400.0 mg/kg/injection, schedule: Q01DX009 (ip), vehicle: Klucel (hydroxypropylcellulose) (HPC) 117 % of control
